Experimental data published in patent US20110053897A1 (IRM LLC, priority 2009, published 2011).
Like-named read-outs stand apart in the source and are kept apart here.

Biological target: T1, Syk kinase (Homo sapiens, UniProt P43405)
T1 construct: purchased
Assay: Syk kinase inhibition, Caliper LabChip off-chip mobility-shift kinase assay
Assay type: biochemical
Conditions: read-out: Syk Enzyme IC50
Procedure, shortened: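 Purified Syk pre-incubated 15 min with compound in 100 mM HEPES pH 7.5, 1 mM DTT, 10 mM MgCl2 or MnCl2, 0.002% Brij-35, then 1.5 μM fluorescein peptide and ATP at apparent KM added; 1–1.5 h at room temperature, 4% DMSO, EDTA stop. Microfluidic mobility-shift product/substrate conversion gave % inhibition; IC50 from 12-point series (10–0.00003 μM) by 4-parameter fit.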

For `CCN1CCN(CCc2ccc(Nc3nc(-c4cncnc4)cc4c(F)c[nH]c(=O)c34)cc2)CC1` [compound 438], the IC50 was 289 nM.

`CC(C)(C)Nc1nc(Nc2cc(N3CCCC(O)C3)ccn2)cc2ccn(CCO)c(=O)c12` (stereo not drawn) [compound 848] showed an IC50 (Caliper LabChip assay) of 615 nM.

In the case of `Cc1ccnc(Nc2cc3ccn(CCO)c(=O)c3c(NC(C)(C)C)n2)c1` [compound 487], the IC50 is reported as 102 nM.

`Cc1ccnc(Nc2cc3ccn(CCO)c(=O)c3c(N[C@H]3CCOC3)n2)c1` [compound 369] was tested, and the IC50 was 12 nM.

`CCN1CCN(CCc2ccc(Nc3nc(Nc4ccc(C#N)cn4)cc4cc[nH]c(=O)c34)cc2)CC1` [compound 564] gave an IC50 of 385 nM.

`CCn1ccc2cc(Nc3cc(C)ccn3)nc(N[C@H]3CCOC3)c2c1=O` [compound 361] showed an IC50 of 30 nM.

In the case of `COc1cncc(-c2cc3cc[nH]c(=O)c3c(Nc3ccc(N4CC5(CNC5)C4)cc3)n2)n1` [compound 5], the IC50 is reported as 316 nM.

For `COc1cncc(-c2cc3cc[nH]c(=O)c3c(Nc3ccc(CCN4CCN(CCC#N)CC4)cc3)n2)n1` [compound 66], the IC50 was 55 nM.

`COc1cncc(-c2cc3cc[nH]c(=O)c3c(Nc3ccc(C4CCN(CC(=O)N(C)C)CC4)c(C)c3)n2)n1` [compound 167] gave an IC50 of 91 nM.

`CC(O)Cn1ccc2cc(-c3cnc(N)nc3)nc(NC(C)(C)C)c2c1=O` (stereo not drawn) [compound 927] was tested, and the IC50 (Caliper LabChip assay) was 14 nM.

`COc1nc(-c2cc3cc[nH]c(=O)c3c(Nc3ccc(C4CCNCC4)c(C)c3)n2)cnc1N` [compound 168] was tested, and the IC50 was 4 nM.

Compound `Cc1ccnc(Nc2cc3ccn(C)c(=O)c3c(Nc3ccc(C4CCNCC4)cc3)n2)c1` [compound 308] has an IC50 of 7 nM.

With `Cc1ccnc(Nc2cc3cc[nH]c(=O)c3c(N[C@@H]3CCC[C@H]3O)n2)c1` (racemic) [compound 267] the IC50 was 56 nM.

With `CCn1ccc2cc(Nc3cc(C)c(F)cn3)nc(N[C@@H](C)CO)c2c1=O` [compound 395] the IC50 was 85 nM.

With `CCN1CCN(CCc2ccc(Nc3nc(-c4cncc(OC)n4)cc4cc[nH]c(=O)c34)cc2)CC1C` (stereo not drawn) [compound 33] the IC50 was 34 nM.

`Cc1cnccc1-c1ccnc(Nc2cc3ccn(CCO)c(=O)c3c(NC(C)(C)C)n2)c1` [compound 853] showed an IC50 (Caliper LabChip assay) of 111 nM.

`Nc1nc(Nc2cnccn2)cc2ccn(Cc3ccccc3)c(=O)c12` [compound 478] showed an IC50 of 1630 nM.

`COc1cncc(-c2cc3cc[nH]c(=O)c3c(Nc3ccc(C4CCN(C(=O)C5(N)CC5)CC4)c(C)c3)n2)n1` [compound 60] showed an IC50 of 155 nM.

Work on `CCn1ccc2cc(Nc3cnccn3)nc(NC(C)(C)CO)c2c1=O` [compound 895] yielded an IC50 (Caliper LabChip assay) of 27 nM.

In the case of `COc1cncc(-c2cc3cc[nH]c(=O)c3c(Nc3ccc(C4CCN(CC(N)=O)CC4)c(C)c3)n2)n1` [compound 134], the IC50 is reported as 40 nM.

Work on `Nc1ncc(-c2cc3cc[nH]c(=O)c3c(N[C@@H]3CCC[C@@H]3O)n2)cn1` [compound 182] yielded an IC50 of 30 nM.

Work on `O=c1[nH]ccc2cc(-c3cncc(NC4CC4)n3)nc(Nc3ccc(N4CCOCC4)cc3)c12` [compound 48] yielded an IC50 of 83 nM.

`CCc1ccnc(Nc2cc3cc[nH]c(=O)c3c(Nc3ccc(C4CCN(C5CC5)CC4)c(C)c3)n2)c1` [compound 253] gave an IC50 of 33 nM.

With `CCn1ccc2cc(Nc3cc(C)c(F)cn3)nc(N[C@H]3CC[C@@H](O)CC3)c2c1=O` [compound 393] the IC50 was 90 nM.

For `O=c1[nH]ccc2cc(-c3cncnc3)nc(Nc3ccc([C@H]4CC[C@@H](N5CCOCC5)CC4)cc3)c12` [compound 10], the IC50 was 266 nM.

`Cc1ccnc(Nc2cc3cc[nH]c(=O)c3c(NC3CCOCC3)n2)c1` [compound 293] gave an IC50 of 145 nM.

`[2H]C([2H])([2H])n1ccc2cc(Nc3cc(C)ccn3)nc(N[C@@H](C)CO)c2c1=O` [compound 398] was tested, and the IC50 was 46 nM.

In the case of `C[C@@H](CO)Nc1nc(Nc2cnccn2)cc2ccn(C)c(=O)c12` [compound 327], the IC50 is reported as 120 nM.

Work on `CC(=O)c1cc2cc[nH]c(=O)c2c(Nc2ccc(N3CCO[C@H](C)C3)c(C)c2)n1` [compound 220] yielded an IC50 of 807 nM.

`O=c1[nH]ccc2cc(Nc3cnccn3)nc(Nc3ccc(N4CCOCC4)cc3)c12` [compound 461] showed an IC50 of 100 nM.

Work on `Cc1ccnc(Nc2cc3cc[nH]c(=O)c3c(NC[C@H](C)O)n2)c1` [compound 501] yielded an IC50 of 38 nM.

For `O=c1c2c(N[C@H]3CC[C@@H](O)CC3)nc(Nc3cnccn3)cc2ccn1CCF` [compound 999], the IC50 (Caliper LabChip assay) was 10 nM.

With `O=C(N1CC2CC(C1)c1cc(Nc3nc(-c4cnccn4)cc4cc[nH]c(=O)c34)ccc12)C(F)(F)F` (stereo not drawn) [compound 97] the IC50 was 2500 nM.

With `COc1ncc(-c2cc3cc[nH]c(=O)c3c(Nc3ccc(C4CN(C)C4)cc3)n2)cn1` [compound 139] the IC50 was 34 nM.

With `CC(C)(C)Nc1nc(Nc2cc(C(N)=O)ccn2)cc2ccn(CCO)c(=O)c12` [compound 681] the IC50 (Caliper LabChip assay) was 82 nM.

`CCn1ccc2cc(Nc3ncccn3)nc(NC[C@H]3CC[C@H](O)C3)c2c1=O` [compound 411] showed an IC50 of 71 nM.

`COc1cncc(-c2cc3cc[nH]c(=O)c3c(Nc3ccc(C4CCN(CCC#N)C4)cc3)n2)n1` (stereo not drawn) [compound 65] showed an IC50 of 30 nM.

In the case of `CC(C)(C)Nc1nc(-c2cnc(N)nc2)cc2ccn(CC3CCOCC3)c(=O)c12` [compound 919], the IC50 (Caliper LabChip assay) is reported as 81 nM.

With `Nc1ncc(-c2cc3ccn(C4COC4)c(=O)c3c(NC3CCC3)n2)cn1` [compound 772] the IC50 (Caliper LabChip assay) was 25 nM.

Work on `COc1cncc(-c2cc3cc[nH]c(=O)c3c(Nc3ccc(CCN4CCNC5(CCCC5)C4)cc3)n2)n1` [compound 22] yielded an IC50 of 78 nM.

`CC(C)n1ccc2cc(Nc3cnccn3)nc(NC(C)(C)C)c2c1=O` [compound 822] was tested, and the IC50 (Caliper LabChip assay) was 165 nM.

`CCn1ccc2cc(-c3cnc(N)nc3)nc(N[C@H]3C[C@@H](CO)C3)c2c1=O` [compound 748] gave an IC50 (Caliper LabChip assay) of 7 nM.

`CC1(Nc2nc(Nc3cnccn3)cc3cc[nH]c(=O)c23)CC1` [compound 839] gave an IC50 (Caliper LabChip assay) of 8 nM.

With `COc1ccc(Nc2nc(Nc3cnccn3)cc3ccn(C)c(=O)c23)cc1` [compound 365] the IC50 was 361 nM.

`CCn1ccc2cc(-c3cnc(N)nc3)nc(NC(C)(C)CCO)c2c1=O` [compound 1037] was tested, and the IC50 (Caliper LabChip assay) was 14 nM.

In the case of `CC(C)n1ccc2cc(Nc3cnccn3)nc(N[C@H]3CC[C@@H](CO)C3)c2c1=O` [compound 988], the IC50 (Caliper LabChip assay) is reported as 3 nM.

Work on `CC(C)(C)Nc1nc(Nc2cc(C(C)(C)N)ccn2)cc2ccn(CCO)c(=O)c12` [compound 711, 6-(4-(2-aminopropan-2-yl)pyridin-2-ylamino)-8-(tert-butylamino)-2-(2-hydroxyethyl)-2,7-naphthyridin-1(2H)-one] yielded an IC50 (Caliper LabChip assay) of 197 nM.

Work on `Nc1ncc(-c2cc3cc[nH]c(=O)c3c(NC3CCOC3)n2)cn1` (stereo not drawn) [compound 185] yielded an IC50 of 145 nM.

Compound `O=c1c2c(NC3CCCC3)nc(Nc3cnccn3)cc2ccn1CC1(CO)COC1` [compound 763] has an IC50 (Caliper LabChip assay) of 12 nM.

`Cc1ccnc(Nc2cc3cc[nH]c(=O)c3c(NCCO)n2)c1` [compound 561] gave an IC50 of 501 nM.

With `O=c1[nH]ccc2cc(Nc3ccccn3)nc(NCCc3cccnc3)c12` [compound 289] the IC50 was 228 nM.

With `CC(C)C(C)Nc1nc(Nc2ccccn2)cc2cc[nH]c(=O)c12` (stereo not drawn) [compound 278] the IC50 was 2210 nM.

`CCn1ccc2cc(Nc3cc(C)ccn3)nc(NC3CCS(=O)(=O)C3)c2c1=O` (stereo not drawn) [compound 970] showed an IC50 (Caliper LabChip assay) of 75 nM.

In the case of `CCN1CCN(c2n[nH]c3cc(Nc4nc(-c5cncc(OC)n5)cc5cc[nH]c(=O)c45)ccc23)CC1` [compound 209], the IC50 is reported as 11 nM.

With `COc1cncc(-c2cc3c(F)c[nH]c(=O)c3c(Nc3ccc(N4CCOCC4)cc3)n2)n1` [compound 432] the IC50 was 623 nM.

`CC(O)c1ccnc(Nc2cc3ccn(CCO)c(=O)c3c(NC(C)(C)C)n2)n1` (stereo not drawn) [compound 715] showed an IC50 (Caliper LabChip assay) of 679 nM.

Work on `COc1cncc(-c2cc3cc[nH]c(=O)c3c(Nc3ccc(CCN4CCCN(C)CC4)cc3)n2)n1` [compound 434] yielded an IC50 of 37 nM.

For `Cc1cc(Nc2nc(Nc3ccc(S(N)(=O)=O)cn3)cc3cc[nH]c(=O)c23)ccc1C1CCN(C2CC2)CC1` [compound 258], the IC50 was 61 nM.

`C[C@@H](O)c1ccnc(Nc2cc3ccn(CCO)c(=O)c3c(NC(C)(C)C)n2)c1` [compound 713] gave an IC50 (Caliper LabChip assay) of 3 nM.

With `CC(C)(C)Nc1nc(Nc2cc(-c3cccnc3)ccn2)cc2ccn(CCO)c(=O)c12` [compound 828] the IC50 (Caliper LabChip assay) was 72 nM.

`Nc1ncc(-c2cc3ccn(CCO)c(=O)c3c(N[C@H]3CC[C@@H](O)CC3)n2)cn1` [compound 1028] showed an IC50 (Caliper LabChip assay) of 14 nM.

With `CC(C)n1ccc2cc(Nc3c[n+]([O-])ccn3)nc(N[C@H]3CC[C@@H](CO)C3)c2c1=O` [compound 1018] the IC50 (Caliper LabChip assay) was 13 nM.

In the case of `NC(=O)Cn1ccc2cc(-c3cnc(N)nc3)nc(NC3CC(F)(F)C3)c2c1=O` [compound 759], the IC50 (Caliper LabChip assay) is reported as 175 nM.

For `CC(C)(C)Nc1nc(Nc2cc(-c3ncccn3)ccn2)cc2ccn(CCO)c(=O)c12` [compound 878], the IC50 (Caliper LabChip assay) was 9 nM.

With `N#CCn1ccc2cc(-c3cnc(N)nc3)nc(NC3CCOCC3)c2c1=O` [compound 742] the IC50 (Caliper LabChip assay) was 34 nM.

Compound `[2H]C([2H])([2H])n1ccc2cc(Nc3cnccn3)nc(N[C@H]3CC[C@@H](O)CC3)c2c1=O` [compound 377] has an IC50 of 34 nM.

For `Cc1ccnc(Nc2cc3ccn(C(C)C)c(=O)c3c(N[C@@H](C)CO)n2)c1` [compound 966], the IC50 (Caliper LabChip assay) was 29 nM.

`CC(O)c1cc(Nc2cc3ccn(CCO)c(=O)c3c(NC(C)(C)C)n2)ncn1` (stereo not drawn) [compound 727] showed an IC50 (Caliper LabChip assay) of 30 nM.

Work on `CCn1ccc2cc(Nc3cnccn3)nc(NC3CCC(C)(O)CC3)c2c1=O` (stereo not drawn) [compound 952] yielded an IC50 (Caliper LabChip assay) of 51 nM.

`CC(C)Nc1nc(Nc2cc(C(=O)O)ccn2)cc2cc[nH]c(=O)c12` [compound 587] was tested, and the IC50 was 226 nM.

`CC(C)Nc1nc(Nc2cnccn2)cc2ccn(CCO)c(=O)c12` [compound 318] gave an IC50 of 52 nM.

Compound `CC1(Cn2ccc3cc(-c4cnc(N)nc4)nc(NC4CC(F)(F)C4)c3c2=O)COC1` [compound 758] has an IC50 (Caliper LabChip assay) of 90 nM.

Compound `COCCn1ccc2cc(Nc3cc(C)ccn3)nc(NC(C)C)c2c1=O` [compound 314] has an IC50 of 237 nM.

In the case of `CCOCCOc1cccc(Nc2nc(Nc3cnccn3)cc3ccn(C)c(=O)c23)c1` [compound 337], the IC50 is reported as 2130 nM.

Compound `CCn1ccc2cc(Nc3cnccn3)nc(Nc3ccc(C(=O)N4CCC(O)C4)cc3)c2c1=O` (stereo not drawn) [compound 833] has an IC50 (Caliper LabChip assay) of 263 nM.
